Measurements: US8765409B2, “Efficient production of heterologous proteins using mannosyl transferase inhibitors” (Merck Sharp & Dohme Corp., priority 2008, dated 2014)

Legend:
[1] = system: O-glycosylation of human anti-Her2 antibody in Pichia pastoris strain yGLY4280 (Pmt-mediated); assay: O-glycan occupancy of secreted anti-Her2 antibody (Dionex HPAEC-PAD) from shake-flask cultures treated with Pmt inhibitor; type: cell-based; settings: inhibitor 0.15 ug/mL added at induction; 24 hr in induction media; protein A purified anti-Her2; no inhibitor >14.0
Procedure: Anti-Her2 protein expression for strain yGLY4280 was carried out in shake flasks at 24° C. with buffered glycerol-complex medium (BMGY) consisting of 1% yeast extract, 2% peptone, 100 mM potassium phosphate buffer pH 6.0, 1.34% yeast nitrogen base, 4×10-5% biotin, and 1% glycerol. The induction medium for protein expression was buffered methanol-complex medium (BMMY) consisting of 1% methanol instead of glycerol in BMGY. Pmt inhibitors in 100% methanol were added to the growth medium to a final concentration of 0.15 ug/mL at the time the induction medium was added. This is an intermediate dose that is sufficient to reduce O-glycosylation to roughly 50% of that observed without Pmt inhibitor treatment, and thus allows a comparison of potency for the different inhibitors. Following 24 hr further growth in the induction media, cultures were harvested and centrifuged at 2,000 rpm for five minutes to remove cells from the supernatant.
O-glycan determination was performed using a Dionex-HPLC(HPAEC-PAD) as follows. To measure O-glycosylation reduction, protein was purified from the growth medium using protein A chromatography (Li et al. Nat. Biotechnol. 24(2):210-5 (2006)) and the O-glycans released from and separated from protein by alkaline elimination (beta-elimination) (Harvey, Mass Spectrometry Reviews 18: 349-451 (1999)). This process also reduces the newly formed reducing terminus of the released O-glycan (either oligomannose or mannose) to mannitol. The mannitol group thus serves as a unique indicator of each O— glycan. 0.5 nmole or more of protein, contained within a volume of 100 μL PBS buffer, was required for beta elimination. The sample was treated with 25 μL alkaline borohydride reagent and incubated at 50° C. for 16 hours. About 20 uL arabitol internal standard was added, followed by 10 μL glacial acetic acid. The sample was then centrifuged through a Millipore filter containing both SEPABEADS and AG 50W-X8 resin and washed with water. The samples, including wash, were transferred to plastic autosampler vials and evaporated to dryness in a centrifugal evaporator. 150 μL 1% AcOH/MeOH was added to the samples and the samples evaporated to dryness in a centrifugal evaporator. This last step was repeated five more times. 200 μL of water was added and 100 μL of the sample was analyzed by high pH anion-exchange chromatography coupled with pulsed electrochemical detection-Dionex HPLC(HPAEC-PAD). Average O-glycan occupancy was determined based upon the amount of mannitol recovered.

[2] = system: O-glycosylation of anti-Her2 heavy chain (Hc) in Pichia pastoris strain yGLY4280; assay: Western blot of anti-Her2 heavy chain O-glycosylation with 2-fold dilutions of Pmt inhibitor in 96-well plates (FIG. 1); type: cell-based; settings: 2-fold dilutions 5 to 0.009 ug/mL, 24 hours; for concentration as low as which O-glycosylation of anti-Her2 Hc was effectively reduced: Western blot
Source text: FIG. 1 illustrates the effect of Pmt inhibitors including the novel inhibitor shown as Example 4 on O-glycosylation of secreted recombinant monoclonal antibody in Pichia pastoris. […] Western blotting using an anti-human H+L antibody was used to detect heavy (Hc) and light (Lc) chains in the growth media of strains treated with increasing amounts of Pmt inhibitor (higher doses in left lanes). The slowest migrating band (marked with asterisk) indicates the O-glycosylated Hc which is eliminated by Pmt inhibitor treatment. […] Strain yGLY4280 was inoculated into 96-well deep well plates (Qiagen, Valencia, Calif.) containing 0.5 ml of BMGY media per well. After 24 hours growth with vigorous shaking, the 96-well plate was centrifuged at 2,000 rpm for five minutes to pellet cells. The media was removed and, following a wash step with 0.5 mL of BMMY media, the cells resuspended in 0.2 mL BMMY media in which Pmt inhibitors were diluted 2-fold across the rows (11 wells). Well #1 contained 5 ug/mL of inhibitor, well #2 contained 2.5 ug/mL and so on until well #10 contained 0.009 ug/mL; well #11 contained no inhibitor. After an additional 24 hours growth with vigorous shaking, the plate was centrifuged at 2,000 rpm for five minutes to pellet cells, and the cleared supernatant subjected to Western blot analysis to detect anti-Her2 expression. The Western blotting was performed as follows: seven μL of the supernatants were separated by reducing polyacrylamide gel electrophoresis (SDS-PAGE) according to Laemmli, U. K. (1970) Nature 227, 680-685 and then electroblotted onto nitrocellulose membranes (Schleicher & Schuell, now Whatman, Inc., Florham Park, N.J.). Anti-Her2 antibody chains were detected on the Western blots using a peroxidase-conjugated anti-human Hc and Lc antibody (Calbiochem/EMD Biosciences, La Jolla, Calif.) and developed using the ImmunoPure Metal Enhanced DAB Substrate Kit (Pierce Biotechnology, Rockford, Ill.).

Structure (SMILES)	O-glycan occupancy (moles O-mannose/moles Ab) [1]	effect on O-glycosylation of anti-Her2 Hc (Western blot, in words) ([2]; FIG. 1)	concentration as low as which O-glycosylation of anti-Her2 Hc was effectively reduced [2]
COCC(COC)(Oc1cc(/C=C2/SC(=S)N(CC(=O)O)C2=O)ccc1OCCc1ccc(F)cc1)c1ccccc1 [Example 1]	4.1 moles O-mannose/moles Ab	–	–
O=C(O)CN1C(=O)/C(=C/c2ccc(OCCc3ccc(F)cc3)c(OC(c3ccccc3)c3ccccc3)c2)SC1=S [Example 2]	4.3 moles O-mannose/moles Ab	–	–
O=C(O)CN1C(=O)/C(=C/c2ccc(OCCc3ccc(F)cc3)c(OC(c3ccccc3)C3CCCCC3)c2)SC1=S (centres unmarked) [Example 3]	5.5 moles O-mannose/moles Ab	–	–
CC(C)COCC(Oc1cc(/C=C2\SC(=S)N(CC(=O)O)C2=O)ccc1OCCc1ccc(F)cc1)c1ccccc1 (centres unmarked) [Example 4]	5.2 moles O-mannose/moles Ab	reduced O-glycosylation in a dose-dependent fashion	0.018 µg/mL
O=C(O)CN1C(=O)/C(=C/c2ccc(OCCc3ccccc3)c(OC(CO)c3ccccc3)c2)SC1=S (centres unmarked) [Pmti-3, reference compound]	8.1 moles O-mannose/moles Ab	–	0.018 µg/mL
